Experiments:
human DGKα = human DGKα (Homo sapiens (Human), UniProt P23743); assay: DGKα Biochemical Activity Assay (ADP-Glo); conditions: recombinant DGKα 1 nM, 100 μM ATP, 18:1 DAG/POPS/octylglucoside micelles, 1 hour at 25° C.; geometric mean; read-out: HTBS DGKa 1X ATP KM IC50
Procedure, shortened: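 Recombinant DGKα (1 nM final) was preincubated with compound for 15 min, then reacted for 1 h at 25 °C with 100 μM ATP and octylglucoside micelles of 0.85 mM 18:1 DAG and 6.75 mM POPS in pH 7.2 MOPS with 5 mM MgCl2. ADP formed was read by ADP-Glo luminescence. IC50 came from four-parameter fits normalized to DMSO and 50 μM CU3, and values were geometric means.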

[1] = system: Jurkat NFκB-luciferase cells; assay: Jurkat NFκB-Luciferase Assay; assay type: cell-based; conditions: Homo sapiens; Jurkat NFκB-luciferase cells activated with anti-CD3 antibody (OKT3), 2.5 hrs at 37° C.; geometric mean; read-out: DGK NFKb Luciferase EC50
Procedure, shortened: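 Jurkat NFκB-luciferase reporter cells stimulated on plate-bound anti-CD3 (5 ug/ml coating) with compound, 2.5 hrs at 37° C then 30 min at 25° C; luminescence read with One-Glo Ex. Normalized to DMSO (basal) and 1 micromolar compound (maximum) controls; EC50 from four-parameter fit, geometric mean across experiments.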

Sequence of human DGKα (P23743 whole entry): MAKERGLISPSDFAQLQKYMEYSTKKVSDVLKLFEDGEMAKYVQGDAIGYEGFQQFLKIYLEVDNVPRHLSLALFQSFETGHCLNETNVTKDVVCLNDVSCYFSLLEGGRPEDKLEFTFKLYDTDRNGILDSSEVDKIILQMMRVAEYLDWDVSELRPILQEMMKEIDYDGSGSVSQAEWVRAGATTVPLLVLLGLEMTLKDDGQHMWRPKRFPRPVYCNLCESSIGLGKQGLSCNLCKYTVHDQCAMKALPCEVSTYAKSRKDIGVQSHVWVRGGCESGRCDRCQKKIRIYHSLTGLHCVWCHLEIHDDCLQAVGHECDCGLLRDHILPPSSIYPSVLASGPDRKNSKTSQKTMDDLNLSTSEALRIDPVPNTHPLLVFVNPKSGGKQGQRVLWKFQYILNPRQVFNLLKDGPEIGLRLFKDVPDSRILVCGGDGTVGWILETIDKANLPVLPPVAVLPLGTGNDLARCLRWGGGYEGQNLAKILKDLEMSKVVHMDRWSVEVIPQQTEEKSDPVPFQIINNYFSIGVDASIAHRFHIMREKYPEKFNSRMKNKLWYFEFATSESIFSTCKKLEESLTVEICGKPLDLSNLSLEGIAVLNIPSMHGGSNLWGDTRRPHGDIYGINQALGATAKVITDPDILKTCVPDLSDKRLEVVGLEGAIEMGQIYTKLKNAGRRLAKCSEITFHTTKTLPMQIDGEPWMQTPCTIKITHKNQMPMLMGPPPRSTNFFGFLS

| IC50 (human DGKα) [nM] | EC50 [1] [nM] | SMILES |
| --- | --- | --- |
| 7.78 | 18.1 | CCC(O)C#Cc1cccc2c1CCCN2c1nc2nncn2c2ncc(F)cc12 (stereo not drawn) [Example 146, 1-(1-(3-fluoropyrido[3,2-e][1,2,4]triazolo[4,3-a]pyrimidin-5-yl)-1,2,3,4-tetrahydroquinolin-5-yl)pent-1-yn-3-ol] |
| 51.4 | 3.82 | CCC1(C#Cc2cccc(N(C)c3nc4nncn4c4ncc(F)cc34)c2)CC1 [Example 151, N-[3-[2-(1-ethylcyclopropyl)ethynyl]phenyl]-11-fluoro-N-methyl-2,4,5,7,13-pentazatricyclo[7.4.0.02,6]trideca-1(13),3,5,7,9,11-hexaen-8-amine] |
| 22.6 | 3.08 | FC(F)(F)C1(C#Cc2cccc3c2CCCN3c2nc3nncn3c3cccnc23)CC1 [Example 25, 8-[5-[2-[1-(trifluoromethyl)cyclopropyl]ethynyl]-3,4-dihydro-2H-quinolin-1-yl]-2,4,5,7,10-pentazatricyclo[7.4.0.02,6]trideca-1(13),3,5,7,9,11-hexaene] |
| 47.8 | 6.04 | Cc1nnc2nc(N3CCCc4c(C#Cc5cnn(C)c5)cccc43)c3ccc(C(F)(F)F)nc3n12 [Example 139, 9-methyl-5-(5-((1-methyl-1H-pyrazol-4-yl)ethynyl)-3,4-dihydroquinolin-1(2H)-yl)-2-(trifluoromethyl)pyrido[3,2-e][1,2,4]triazolo[4,3-a]pyrimidine] |
| 3.96 | 1.24 | Cc1nnc2nc(N3CCCCc4c(C#CC5(C(F)F)CC5)cccc43)c3c(F)cncc3n12 [Example 67, 5-(6-((1-(difluoromethyl)cyclopropyl)ethynyl)-2,3,4,5-tetrahydro-1H-benzo[b]azepin-1-yl)-6-fluoro-1-methylpyrido[4,3-e][1,2,4]triazolo[4,3-a]pyrimidine] |
| 10.3 | 1.3 | CC1(C#Cc2cccc3c2CCCN3c2nc3nncn3c3cnccc23)CC1 [Example 82] |
| 11.9 | 33.6 | Cc1nnc2nc(N3CCCc4c(C#CC(C)(C)O)cccc43)c3c(F)cncc3n12 [Example 28, 4-(1-(6-fluoro-1-methylpyrido[4,3-e][1,2,4]triazolo[4,3-a]pyrimidin-5-yl)-1,2,3,4-tetrahydroquinolin-5-yl)-2-methylbut-3-yn-2-ol] |
| 41.1 | 1.22 | CCN(c1cc(F)cc(C#CC(C)(C)C(F)(F)F)c1)c1nc2nncn2c2cncc(F)c12 [Example 88, N-ethyl-10-fluoro-N-[3-fluoro-5-(4,4,4-trifluoro-3,3-dimethyl-but-1-ynyl)phenyl]-2,4,5,7,12-pentazatricyclo[7.4.0.02,6]trideca-1(13),3,5,7,9,11-hexaen-8-amine] |
| 2.28 | 2 | Cc1nnc2nc(N3CCOCc4c(C#CC5(C)CC5)cccc43)c3c(F)cncc3n12 [Example 79, 1-(6-fluoro-1-methylpyrido[4,3-e][1,2,4]triazolo[4,3-a]pyrimidin-5-yl)-6-((1-methylcyclopropyl)ethynyl)-1,2,3,5-tetrahydrobenzo[e][1,4]oxazepine] |

Continued, compound first:

| SMILES | IC50 (human DGKα) [nM] | EC50 [1] [nM] |
| --- | --- | --- |
| COc1ccc2c(N(C)c3cccc(-c4ccc(S(F)(F)(F)(F)F)cc4)c3)nc3nncn3c2n1 [Example 115, 2-methoxy-N-methyl-N-(4′-(pentafluoro-16-sulfaneyl)-[1,1′-biphenyl]-3-yl)pyrido[3,2-e][1,2,4]triazolo[4,3-a]pyrimidin-5-amine] | 448 | 1.74 |
| COc1ccc2c(N(C)c3cccc(-c4ccc(C5CC5)cc4)c3)nc3nncn3c2n1 [Example 129, N-(4′-cyclopropyl-[1,1′-biphenyl]-3-yl)-2-methoxy-N-methylpyrido[3,2-e][1,2,4]triazolo[4,3-a]pyrimidin-5-amine] | 28.9 | 0.754 |
| CNc1ccc2c(N(C)c3cccc(-c4ccc(S(F)(F)(F)(F)F)cc4)c3)nc3nncn3c2n1 [Example 116, N2,N5-dimethyl-N5-(4′-(pentafluoro-16-sulfaneyl)-[1,1′-biphenyl]-3-yl)pyrido[3,2-e][1,2,4]triazolo[4,3-a]pyrimidine-2,5-diamine] | 439 | 5.67 |
| CN(c1cccc(C#CC(C)(C)O)c1)c1nc2nnnn2c2cc(Cl)ccc12 [Example 10, 4-(3-((8-chlorotetrazolo[1,5-a]quinazolin-5-yl)(methyl)amino)phenyl)-2-methylbut-3-yn-2-ol] | 93.1 | 8.66 |
| Cc1ccc2c(N(C)c3cccc(-c4ccc(C5CC5)cc4)c3)nc3nncn3c2n1 [Example 123, N-(4′-cyclopropyl-[1,1′-biphenyl]-3-yl)-N,2-dimethylpyrido[3,2-e][1,2,4]triazolo[4,3-a]pyrimidin-5-amine] | 12.7 | 2.05 |
| CN(c1cccc(Br)c1)c1nc2nnnn2c2cc(Cl)ccc12 [Example 11, N-(3-bromophenyl)-8-chloro-N-methyltetrazolo[1,5-a]quinazolin-5-amine] | 430 | 36.4 |
